Data published in the supplement of paper PMC11451515.

Test system: NOMO1
Assay: cell viability relative to DMSO control; higher = less cytotoxic
Conditions: 48 h
Outline: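 NOMO1 or SEM cells were plated at 500 cells/well and P12-Ichikawa cells at 1000 cells/well in 1536-well plates (5 μl), after each leukemia line had been adapted for at least four passages in each medium. Pin dosing delivered library compounds in DMSO at 11 threefold concentrations, 47 μM to 0.79 nM. CellTiter-Glo One luminescence was read after 48 h at 37°C. Viability is reported as a per-plate percentage of DMSO wells, with cell-free wells as background.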

[1] = HPLM + 10% dialyzed FBS, 0.000781 µM
[2] = HPLM + 10% dialyzed FBS, 0.00234 µM
[3] = HPLM + 10% dialyzed FBS, 0.00702 µM
[4] = HPLM + 10% dialyzed FBS, 0.0211 µM
[5] = HPLM + 10% dialyzed FBS, 0.0632 µM
[6] = HPLM + 10% dialyzed FBS, 0.19 µM
[7] = HPLM + 10% dialyzed FBS, 0.569 µM
[8] = HPLM + 10% dialyzed FBS, 1.71 µM
[9] = HPLM + 10% dialyzed FBS, 5.12 µM
[10] = HPLM + 10% dialyzed FBS, 15.4 µM
[11] = HPLM + 10% dialyzed FBS, 46.1 µM
[12] = RPMI 5 mM glucose + 10% FBS, 0.000781 µM
[13] = RPMI 5 mM glucose + 10% FBS, 0.00234 µM
[14] = RPMI 5 mM glucose + 10% FBS, 0.00702 µM
[15] = RPMI 5 mM glucose + 10% FBS, 0.0211 µM
[16] = RPMI 5 mM glucose + 10% FBS, 0.0632 µM
[17] = RPMI 5 mM glucose + 10% FBS, 0.19 µM
[18] = RPMI 5 mM glucose + 10% FBS, 0.569 µM
[19] = RPMI 5 mM glucose + 10% FBS, 1.71 µM
[20] = RPMI 5 mM glucose + 10% FBS, 5.12 µM
[21] = RPMI 5 mM glucose + 10% FBS, 15.4 µM
[22] = RPMI 5 mM glucose + 10% FBS, 46.1 µM
[23] = RPMI 5 mM glucose + 10% dialyzed FBS, 0.000781 µM
[24] = RPMI 5 mM glucose + 10% dialyzed FBS, 0.00234 µM
[25] = RPMI 5 mM glucose + 10% dialyzed FBS, 0.00702 µM
[26] = RPMI 5 mM glucose + 10% dialyzed FBS, 0.0211 µM
[27] = RPMI 5 mM glucose + 10% dialyzed FBS, 0.0632 µM
[28] = RPMI 5 mM glucose + 10% dialyzed FBS, 0.19 µM
[29] = RPMI 5 mM glucose + 10% dialyzed FBS, 0.569 µM
[30] = RPMI 5 mM glucose + 10% dialyzed FBS, 1.71 µM
[31] = RPMI 5 mM glucose + 10% dialyzed FBS, 5.12 µM
[32] = RPMI 5 mM glucose + 10% dialyzed FBS, 15.4 µM
[33] = RPMI 5 mM glucose + 10% dialyzed FBS, 46.1 µM

Row | SMILES | cell viability [1] [%] | cell viability [2] [%] | cell viability [3] [%] | cell viability [4] [%] | cell viability [5] [%] | cell viability [6] [%] | cell viability [7] [%] | cell viability [8] [%] | cell viability [9] [%] | cell viability [10] [%] | cell viability [11] [%] | cell viability [12] [%] | cell viability [13] [%] | cell viability [14] [%] | cell viability [15] [%] | cell viability [16] [%] | cell viability [17] [%] | cell viability [18] [%] | cell viability [19] [%] | cell viability [20] [%] | cell viability [21] [%] | cell viability [22] [%] | cell viability [23] [%] | cell viability [24] [%] | cell viability [25] [%] | cell viability [26] [%] | cell viability [27] [%] | cell viability [28] [%] | cell viability [29] [%] | cell viability [30] [%] | cell viability [31] [%] | cell viability [32] [%] | cell viability [33] [%]
1 | CCNC(=O)Nc1ccc(Oc2ncnc(N)c2/C=N/OC)cc1Cl | 104 | 113 | 111 | 115 | 109 | 113 | 133 | 125 | 127 | 105 | 111 | 112 | 118 | 114 | 115 | 119 | 113 | 113 | 121 | 118 | 124 | 122 | 90.2 | 113 | 98.1 | 101 | 114 | 109 | 117 | 112 | 103 | 109 | 125
2 | NC1=NC(=O)N2CC12 (centres undefined) | 82 | 94.5 | 104 | 102 | 107 | 99.3 | 104 | 73.9 | 43.5 | 4.8 | 4.55 | 87.7 | 94.5 | 94.2 | 87.8 | 92.2 | 90.1 | 85.3 | 82.7 | 56.2 | 4.92 | 4.24 | 88.3 | 76.1 | 87.8 | 93.4 | 104 | 101 | 106 | 64.7 | 55.9 | 3.18 | 4.25
3 | COCCn1c2c([n+](Cc3cnccn3)c1C)C(=O)c1ccccc1C2=O | – | – | – | – | – | – | – | – | – | – | – | 127 | 123 | 113 | 112 | 104 | 35.3 | 7.45 | 6.58 | 6.62 | 4.16 | 1.59 | – | – | – | – | – | – | – | – | – | – | –
4 | CN1C(=O)/C(=C(NC2=CC=C(I)C=C2F)\C3=C1\N=C/N(C[C@@H](O)CO)C3=O)F | 68.9 | 64.9 | 72.1 | 58.8 | 48.5 | 48.8 | 41.3 | 33.7 | 30.2 | 36.2 | 26.4 | 69.9 | 77.6 | 78.7 | 52.5 | 48 | 45.7 | 31.1 | 34.6 | 30.7 | 37.8 | 32.7 | 69.2 | 60 | 71.1 | 46 | 48.9 | 41.7 | 37.5 | 33.7 | 32.7 | 31.8 | 29.5
5 | CN(C)C/C=C/C(=O)Nc1ccc(C(=O)Nc2cccc(Nc3ncc(Cl)c(-c4c[nH]c5ccccc45)n3)c2)cc1 | 78.8 | 99.4 | 101 | 94.6 | 88.4 | 85.2 | 5.25 | 4.49 | 4.42 | 3.89 | 3.78 | 81.9 | 91.4 | 84.4 | 93.8 | 93.5 | 98.7 | 5.96 | 4.95 | 4.62 | 3.68 | 3.47 | 80 | 87.7 | 91.2 | 94.7 | 95 | 73.9 | 3.8 | 3.8 | 3.2 | 2.9 | 3.15
6 | c1cc(-c2cnn3cc(-c4ccc(OCCN5CCCCC5)cc4)cnc23)ccn1 | 95.4 | 83.7 | 101 | 87.5 | 83.1 | 88.8 | 88.6 | 67.2 | 76.1 | 72.8 | 30.5 | 83.1 | 88.8 | 87.4 | 81.2 | 83.9 | 83.4 | 80.6 | 80.9 | 80.4 | 85.9 | 80.2 | 80.1 | 84.5 | 82.6 | 86.9 | 89.5 | 86.5 | 79.6 | 84 | 78.3 | 80.9 | 74
7 | NC(=O)c1cnccn1 | 105 | 120 | 147 | 133 | 140 | 140 | 143 | 141 | 145 | 126 | 148 | – | – | – | – | – | – | – | – | – | – | – | – | – | – | – | – | – | – | – | – | – | –
8 | COc1cc(NCc2ccc3nc(N)nc(N)c3c2C)cc(OC)c1OC | 90.2 | 91.7 | 98.9 | 95.1 | 93.5 | 98.4 | 89.5 | 44.4 | 36 | 34.2 | 15.9 | 79.3 | 88 | 80.9 | 85.7 | 84.7 | 89.3 | 93.5 | 83.2 | 99.6 | 86.9 | 9.99 | 87.2 | 88.5 | 86.2 | 91.1 | 91 | 107 | 94.5 | 81.1 | 68.8 | 37.9 | 16.6
9 | CC(=O)N(C)C1(c2ccccc2)CCN(CCC[C@]2(c3ccc(Cl)c(Cl)c3)CCCN(C(=O)c3ccccc3)C2)CC1 | 116 | 124 | 128 | 117 | 123 | 104 | 58.4 | 25.1 | 9.73 | 10 | 4.11 | 106 | 109 | 122 | 126 | 128 | 122 | 111 | 65.5 | 15.3 | 8.99 | 5.76 | 110 | 112 | 114 | 115 | 106 | 115 | 100 | 60.3 | 16.9 | 10.3 | 5.1
10 | CNC(=O)c1ccc2c(c1)NC(=O)/C2=C(\Nc1cccc(CN(C)C)c1)c1ccccc1 | 85.5 | 109 | 103 | 100 | 99.9 | 106 | 95 | 91.9 | 45.9 | 63.4 | 0.559 | 93.7 | 84.5 | 93.6 | 94.9 | 93.1 | 93.3 | 95.1 | 87.2 | 80 | 66.5 | 1.26 | 74.6 | 91.7 | 90.5 | 90.7 | 80 | 98.9 | 90.3 | 89.1 | 75.9 | 57.7 | 1.81
11 | CN(C)c1nc(Cc2ccc(NC(=O)c3ccc(C(F)(F)F)cc3)cc2)nc(N(C)C)c1CC(=O)O | 120 | 101 | 107 | 94.5 | 119 | 112 | 103 | 96.2 | 107 | 108 | 91.1 | 93 | 88.6 | 87.1 | 82.7 | 99.4 | 89.4 | 95.7 | 96.6 | 86 | 91.8 | 85.5 | 96.1 | 95.2 | 96.2 | 94.1 | 91.6 | 97.8 | 98 | 99.8 | 96.9 | 86.9 | 86.8
12 | CC(C)(N)c1ccc(-c2nc3ccccc3nc2-c2ccccc2)cc1 | 112 | 118 | 109 | 68.5 | 27.3 | 22.3 | 12.2 | 8.51 | 7.84 | 5.77 | 5.3 | 96.1 | 116 | 112 | 111 | 69.6 | 14.8 | 14.1 | 6.53 | 11.9 | 4.8 | 5.53 | 102 | 106 | 108 | 113 | 78.7 | 20.3 | 27.9 | 13.2 | 19.3 | 6.51 | 8.7
13 | Nc1n[nH]c2nnc(-c3c(-c4ccccc4)nn4ccccc34)cc12 | 103 | 139 | 118 | 131 | 134 | 137 | 137 | 86.3 | 40.5 | 37.4 | 37.3 | 116 | 114 | 144 | 124 | 138 | 123 | 133 | 59 | 24 | 26.9 | 20.8 | 116 | 123 | 134 | 129 | 136 | 129 | 138 | 119 | 29.1 | 28 | 21.4
14 | CO[C@H]1/C=C/O[C@@]2(C)Oc3c(C)c(O)c4c(c3C2=O)C2=NC3(CCN(CC(C)C)CC3)NC2=C(NC(=O)/C(C)=C/C=C/[C@H](C)[C@H](O)[C@@H](C)[C@@H](O)[C@@H](C)[C@H](OC(C)=O)[C@@H]1C)C4=O | 117 | 111 | 146 | 135 | 132 | 127 | 138 | 137 | 127 | 113 | 117 | – | – | – | – | – | – | – | – | – | – | – | – | – | – | – | – | – | – | – | – | – | –
15 | CC(C)C1CCC(C(=O)N[C@H](Cc2ccccc2)C(=O)O)CC1 (some centres undefined) | 87.3 | 100 | 75.4 | 90.4 | 89.9 | 84.5 | 81.4 | 88.6 | 78 | 76.4 | 91.4 | 93.5 | 88.5 | 91.8 | 89.7 | 92.2 | 91.6 | 85.1 | 80.7 | 84.2 | 81.4 | 84.6 | 92.2 | 96.9 | 98.9 | 94.4 | 92 | 94.8 | 100 | 82.6 | 101 | 82.8 | 92.3
16 | Nc1ccc(C(=O)c2cc3c(ccc4ccccc43)[nH]2)cc1 | 120 | 121 | 123 | 129 | 113 | 112 | 117 | 110 | 89.5 | 40.5 | 26.6 | 118 | 112 | 110 | 117 | 121 | 116 | 101 | 109 | 99.2 | 56.4 | 18.9 | – | – | – | – | – | – | – | – | – | – | –
17 | CCCOc1ccc(C(=O)OCCN(CC)CC)cc1N | 109 | 124 | 124 | 121 | 140 | 130 | 132 | 139 | 121 | 112 | 106 | 107 | 115 | 122 | 123 | 107 | 120 | 113 | 111 | 123 | 118 | 118 | 111 | 127 | 115 | 118 | 120 | 128 | 121 | 119 | 117 | 131 | 121
